Earlier results as cited in publication PMC11071064 (Nuclear medicine and biology, 2022).

Assays:
RIPK1 [1] = details: read-out: EC50 (potency)
[2] = pH 7.4
[3] = not given; remark: listed apart in the source
RIPK1 [4] = details: read-out: IC50 for binding toward RIPK1

EC50 (RIPK1 [1]) [µM] | metabolic stability t1/2 [min] | solubility [2] | log D [3] | IC50 (RIPK1 [4]) [µM] | Compound
0.21 | < 5 |  |  |  | CN1C(=O)NC(Cc2c[nH]c3c(Cl)cccc23)C1=O (stereo not shown) [Nec-1s]
0.49 | < 5 |  |  |  | CN1C(=O)C(Cc2c[nH]c3ccccc23)NC1=S (stereo not shown) [Nec-1]
 |  | ~ 450 μM | 3.8 | 0.001 | CN1C(=O)[C@@H](NC(=O)c2n[nH]c(Cc3ccccc3)n2)COc2ccccc21 [Compound 4]
